One data set can be described thus: in vitro. Type of data set: cell-based. The conditions noted are these: human. The source says:
Nevertheless, the involvement of a sigma-2 receptor-mediated effect was ruled out by the detection of a low density of sigma-2 receptors in A549 cells (data not shown). […].

The test system of the next data set is MDCK-MRP1 cells. The experiment in a line: Antiproliferative MTT assay in MDCK-wt and MDCK-MRP1 cells, selectivity ratio. The class given is cell-based, canine. Conditions: EC50 of MDCK cells/EC50 of MDCK-MRP1 cells. As to the method:
Within the search for novel CS agents acting on MRP1 proteins, the compounds selected among the different series of sigma-2 ligands were investigated for their activity at MRP1, paralleled with their cytotoxicity in the parental Madin–Darby canine kidney (MDCK-wt) cells and in the MDR-derived cells (MDCK-MRP1) for the determination of their SR (EC50 parental cells/EC50 MDR cells). The activity at the MRP1 pump was determined measuring the transport inhibition of the pro-fluorescent probe Calcein-AM, an MRP1 substrate, in the MRP1-overexpressing cell line (MDCK-MRP1) by the in vitro biological assay usually performed to study an MRP1 interaction. […] The SR was measured as the EC50 of the MDCK cells/EC50 of the MDCK-MRP1 cells.
(§1) The determination of cell growth was performed using an MTT assay at 24 or 72 h. On day 1, 10,000 cells/well were seeded into 96-well plates in a volume of 100 μL. […] In all the experiments, the various drug solvents (ethanol, DMSO) were added in each control to evaluate a possible solvent cytotoxicity. After the established incubation time with drugs, 10 μL MTT (0.5 mg/mL) was added to each well, and after 3 h incubation at 37°C, the supernatant was removed. The formazan crystals were solubilized using 100 μL of DMSO and the absorbance values at 570 and 630 nm were determined on the microplate reader Victor 3 from PerkinElmer Life Sciences. The absorbance of the untreated cells was considered equal to 100% cell viability; the viability of cells measured in each experimental condition was expressed as a percentage of viable cells in the considered condition vs. the viability of the untreated cells.
On the technique in general: Tetrazolium assays rely on reduction of a dye to a coloured formazan, in cell work by metabolically active cells.

A short description of data set [1]: Hemato-chemical parameters and tolerability in treated mice. Set-up: Creatinine: unit not given here. Conditions: for ALT / AP / AST / CPK / Creatinine / LDH: blood after euthanasia day 21, i.p. treatment day 1, 7, 14, means ± SD, n = 8; for Maximum tolerated dose: i.p., in 100 µL water/10% DMSO, mice (not shown). The class given is in vivo. As to the method:
(§2) Here, 1 × 10^6 A549/DX cells were mixed with 100 μl Matrigel implanted in 6-week-old female nu/nu BALB/C mice (Charles River Laboratories Italia, Calco, Italy), housed (5 per cage) under 12 h light/dark cycle, with food and drinking provided ad libitum. Tumor growth was measured daily by caliper, according to the equation (LxW2)/2, where L = tumor length and W = tumor width. When the tumor reached the volume of 50 mm^3, mice (n = 8/group) were randomized and treated as reported in the following groups, treated on day 1, 7, and 14 after randomization: (1) vehicle group (ctrl), treated intraperitoneally (i.p.) with 100 µL saline solution; (2) cis-Pt group, treated i.p. with 50 mg/kg cis-Pt, dissolved in 100 µL water/10% DMSO solution, according to Kopecka et al., 2015 [53]; (3) F397 group, treated i.p. with 750 nmoles of the compound, dissolved in 100 µL water/10% DMSO solution, corresponding to the maximum tolerated dose (not shown and Table 2); (4) F421 group, treated i.p. with 750 nmoles of the compound, dissolved in 100 µL water/10% DMSO solution i.p, corresponding to the maximum tolerated dose (not shown and Table 2); (5) cis-Pt/F397 group, treated i.p. with 50 mg/kg Cis-Pt and 750 nmoles of F397; (6) cis-Pt/F421 group, treated i.p. with 50 mg/kg cis-Pt and 750 nmoles of F421; (7) MK571 group, treated i.p. with 3 mg/kg MK571 dissolved in 100 µL water/10% DMSO solution, according to Jones et al., 1989 [56]; (8) MK571/F397 group, treated i.p. with 3 mg/kg MK571 and 750 nmoles of F397; (9) MK571/F421 group, treated i.p. with 3 mg/kg MK571 and 750 nmoles of F421. Tumor volumes were monitored daily. Animals were euthanized at day 21 after randomization with zolazepam (0.2 mL/kg) and xylazine (16 mg/kg). Lactate dehydrogenase (LDH), aspartate aminotransferase (AST), alanine aminotransferase (ALT), alkaline phosphatase (AP), creatinine, and creatine phosphokinase (CPK) were measured on blood samples collected immediately after euthanasia, using commercially available kits from Beckman Coulter Inc. (Beckman Coulter, Miami, FL, USA).

Data set [2] deals with A549/DX cells. Put plainly: Cell viability (MTT) of A549/DX cells at 72 h, alone and in co-administration. Type of data set: cell-based, human. Conditions: for Cell viability / cytotoxic effect, compound alone: 10 μM; for Cell viability in co-administration with MRP1 inhibitor MK571: compound 10 μM + MK571 25 μM; for Cytotoxic effect in co-administration with cis-Pt: compound 10 μM + cis-Pt 25 μM. As to the method:
Indeed, the accurate detection of cell viability in A549 cells was critical in calculating the SR in a reliable manner.
First, we wondered if there was a correlation between the inhibition of the MRP1 protein and the CS properties of the compounds.
as §1

Data set [3] deals with A549/DX cells. Put plainly: In vivo tumor growth of A549/DX xenografts. Set-up: species or system nu/nu BALB/C mice. Conditions: for Tumor growth, single agent: A549/DX xenografts in nu/nu BALB/C mice, 750 nmoles i.p. on day 1, 7, 14; for Tumor growth, co-administration with MK571 / Tumor growth, co-administration with cis-Pt: A549/DX xenografts; for Tumor growth, co-administration with MK571: 750 nmoles + 3 mg/kg MK571 i.p.; for Tumor growth, co-administration with cis-Pt: 750 nmoles + 50 mg/kg cis-Pt i.p. As to the method: In order to translate in vivo the capability of F397, F400, and F421 to act as “sensitizers”, A549/DX cells were implanted in immune-deficient BALB/C mice, and once the tumor reached the volume of 50 mm^3, the mice were randomized and treated […] with the vehicle (saline solution) and/or cis-Pt.
as §2

Another data set has as its system MCF7/DX. Set-up: method as in PMID 24106081. Conditions: resistant MCF7/DX overexpressing P-gp; read-out: EC50, cytotoxic activity in MCF7/DX; cited from earlier work.
The subject of another data set is P-gp. Set-up: method as in PMID 24106081. The conditions noted are these: MCF7 cell line; read-out: EC50, P-gp inhibition; cited from earlier work.
Data set [4] in a line: Solubility in solvents suitable for in vivo studies. Type of data set: physicochemical. The source says:
Of note, the dose of F397 and F421 effective as an anti-tumor agent in vivo was lower than the dosage effective as an anti-proliferative agent in vitro. One possible reason could be that part of the anti-tumor effect of the compounds was mediated by their activity on the tumor microenvironment, not necessarily only on tumor cells. This aspect cannot be evaluated in the viability assays performed in vitro and could lead to an underestimation of the compounds’ potency. Further, the repeated administration of F397 and F421 followed in vivo instead of the single dosage used in vitro can be an additional explanation. […] This could also be the case of F397 and F421 against A549/DX tumors. […] It is also worth noting that the treatment was not toxic for liver, heart, and kidney compared with the control, as shown from the hemato-chemical parameters of the animals (Table 2).

As for `COc1ccc(CNCCCCc2cn(-c3ccc(F)cc3)c3ccccc23)cc1OC` [F421, N-{4-[1-(4-fluorophenyl)-1H-indol-3-yl]butyl}-3,4-dimethoxybenzylamine], the EC50 in the data set “in vitro” is over 100 µM. The “SR (selectivity ratio)” value in the data set with MDCK-MRP1 cells was determined as 2.47. In data set [1], this compound yielded an ALT of 33 ± 13 U/L, an AP of 143 ± 34 U/L, an AST of 82 ± 37 U/L and a CPK of 321 ± 72 U/L. In data set [1], this compound returned a Creatinine of 0.045 ± 0.011, an LDH of 7182 ± 892 U/L and a Maximum tolerated dose of 750 nmol. In addition, in the data set on A549/DX cells [2], the “Cell viability / cytotoxic effect, compound alone” value (shortened to “Cell viability / cytotoxic effect”) is reported as “cytotoxic effect on their own”; the “Cell viability in co-administration with MRP1 inhibitor MK571” value (shortened to “Cell viability … with MRP1 inhibitor MK571”) is “reverted by the MRP1 inhibitor MK571”; the “Cytotoxic effect in co-administration with cis-Pt” value (from here on “Cytotoxic effect … with cis-Pt”) is recorded as “drastically increases upon co-administration with cis-Pt”. For the same compound, in the data set on A549/DX cells [3], the “Tumor growth, single agent” value is “low growth reduction”; the “Tumor growth, co-administration with MK571” value is on record as “abated the cytotoxic effect”; the “Tumor growth, co-administration with cis-Pt” value is reported as “greatly reduced tumor growth”.

With `COc1cc2c(cc1OC)CN(CCCCc1cn(-c3ccc(F)cc3)c3ccccc13)CC2` [F397, 6,7-dimethoxy-2-{4-[1-(4-fluorophenyl)-1H-indol-3-yl]butyl}-1,2,3,4-tetrahydroisoquinoline], the EC50 in the data set with MCF7/DX is 21.8 µM. In addition, the EC50 in the data set with P-gp was 0.21 µM. Besides, in the data set with MDCK-MRP1 cells, the “SR (selectivity ratio)” value worked out at 3.41. In data set [1], this compound had an ALT of 37 ± 108 U/L, an AP of 112 ± 32 U/L, an AST of 81 ± 24 U/L and a CPK of 324 ± 72 U/L. In data set [1], this compound had a Creatinine of 0.043 ± 0.009, an LDH of 6729 ± 492 U/L and a Maximum tolerated dose of 750 nmol. In the data set on A549/DX cells [2], the “Cell viability / cytotoxic effect” value is “cytotoxic effect on their own”; the “Cell viability … with MRP1 inhibitor MK571” value is given as “reverted by the MRP1 inhibitor MK571”; the “Cytotoxic effect … with cis-Pt” value is “drastically increases upon co-administration with cis-Pt”. In the data set with A549/DX cells [3], the “Tumor growth, single agent” value is “low growth reduction”; the “Tumor growth, co-administration with MK571” value is reported as “abated the cytotoxic effect”; the “Tumor growth, co-administration with cis-Pt” value is listed as “greatly reduced tumor growth”.

Regarding `COc1cc2c(cc1OC)CN(C(=O)CCC1CCCc3c(OC)cccc31)CC2` (stereo not shown) [F400, 6,7-dimethoxy-2-[3-(5-methoxy-1,2,3,4-tetrahydronaphthalen-1-yl)propionyl]-1,2,3,4 tetrahydroisoquinoline], the EC50 in the data set “in vitro” was over 100 µM. For the same compound, the “SR (selectivity ratio)” value in the data set with MDCK-MRP1 cells came out at 5.91. Further, in data set [4], the “Solubility in solvents suitable for in vivo studies” value is “could not be dissolved in solvents suitable for in vivo studies”. For the same compound, in the data set on A549/DX cells [2], the “Cell viability / cytotoxic effect” value was “cytotoxic effect on their own”; the “Cell viability … with MRP1 inhibitor MK571” value was “reverted by the MRP1 inhibitor MK571”; the “Cytotoxic effect … with cis-Pt” value is “drastically increases upon co-administration with cis-Pt”.

Source of the values: PMC7247425, “MRP1-Collateral Sensitizers as a Novel Therapeutic Approach in Resistant Cancer Therapy: An In Vitro and In Vivo Study in Lung Resistant Tumor” (International Journal of Molecular Sciences, 2020).
